Reference: patent EP0559845B1, “Use of compounds in preventing endotoxin shock” (priority 1991, dated 1992)
Entries after “also recorded” stand apart in the source; their conditions may differ. Like-named read-outs stand apart in the source and are kept apart here.

What was measured:
Format in all cases: biochemical
[1] = tested on: LPS-induced GTPase activity in membranes isolated from RAW 264.7 cells; assay: GTPase assay: effect of compounds on LPS-stimulated GTPase activity in macrophage membranes (release of 32Pi from γ-32P-GTP); conditions: for relative abilities of purines to stimulate LPS-enhanced GTPase: dose-response studies, rank order; for sensitivity of LPS-stimulated GTPase activity to inhibitor: high concentrations of inhibitor, 0.1 mM ATP and 0.2 mM AMPPNP
From the text: (§1) We sought to directly evaluate the influence of LPS on possible G-protein function by examining agonist-enhanced GTPase activity, which is a hallmark of G-protein action. Moreover, because macrophages are one of the key cell types in the release of toxic mediators following an LPS challenge, we first assessed the capacity of LPS to influence GTPase activity in membranes isolated from RAW 264.7 cells, which is a highly LPS-responsive macrophage cell line. In these studies, GTPase activity was measured using a standard assay. The activity was determined using 2 µM γ-^32P-GTP in the presence of 0.1 mM ATP and 0.2 mM of the non-hydrolyzable ATP analog, AMPPNP, in order to minimize nonspecific nucleotidase activity in the membrane preparations.
The reaction is initiated by the addition of the γ-^32P-GTP and the mixture incubated at 30-37°C for 15 to 30 minutes. The reaction is terminated by the addition of 500µl of 5% trichloroacetic acid and 500µl of 0.1gm/ml acid-activated charcoal in 5% trichloroacetic acid. The samples are centrifuged at 14,000xg for 10 minutes, and a 550µl aliquot of the supernatant is removed for scintillation counting. The supernatant will contain the released ^32Pi. The extent of GTPase inhibition is measured by the decrease in the amount of ^32Pi released from γ-^32P-GTP. Appropriate controls include mixtures with one of the following omitted: (i) test compound, (ii) endotoxin, and (iii) ATP, ADP or AMPPNP.
The membranes are resuspended in 20 mM HEPES (pH 7.4), 1 mM dithiothreitol, 1 mM EDTA and 10 µg leupeptin/ml. Aliquots are stored at -70°C until assayed.

[2] = tested on: LPS-induced GTPase activity in membranes isolated from RAW 264.7 cells; assay: GTPase assay (release of 32Pi from γ-32P-GTP), LPS-stimulated activity; conditions: for LPS-stimulated GTPase activity when adenine nucleotide included in the incubation: compared with no added adenine nucleotides
From the text: as §1, with “preparations. In the preferred practice of the present invention, the ability of a candidate compound to inhibit LPS-induced GTPase is assessed by measuring the release of ^32Pi from γ-^32P-GTP.” for “preparations.”
(§2) Under these conditions, GTPase activation was evident at 100 µg LPS/ml (roughly 6 µM assuming an average MW ∼ 17,000 kDa), and the maximal effect was seen by 300 µg/ml LPS. (2) To show adenosine mucleotide synergism with LPS-stimulated GTPase activity, either 10µM ATP or 30µM ADP replace the 0.1 mM ATP and 0.2 mM AMPPNP of the standard assay described by Cassel et al. and Neer et al.
(§3) In the preferred assay, a candidate compound (.001 - 1000 µM) is dissolved or suspended in 100µl of a reaction buffer containing 20mM HEPES (pH 7.4), 0.01mM ATP or ADP, membranes isolated from RAW 264.7 cells, 2µM γ-^32P-GTP (3-9 X 10cpm/pmol), 5mM MgCl2, 18µM LPS (based on an estimated MW of 17,000 kDa for E. coli 0111:B4 endotoxin), and 250 mM ammonium sulfate. The reaction is initiated by the addition of the γ-^32P-GTP and the mixture incubated at 30-37°C for 15 to 30 minutes. The reaction is terminated by the addition of 500µl of 5% trichloroacetic acid and 500µl of 0.1gm/ml acid-activated charcoal in 5% trichloroacetic acid. The samples are centrifuged at 14,000xg for 10 minutes, and a 550µl aliquot of the supernatant is removed for scintillation counting. The supernatant will contain the released ^32Pi. The extent of GTPase inhibition is measured by the decrease in the amount of ^32Pi released from γ-^32P-GTP. Appropriate controls include mixtures with one of the following omitted: (i) test compound, (ii) endotoxin, and (iii) ATP, ADP or AMPPNP.
(§4) The macrophage-like cell line RAW 264.7 is cultured as described using RPMI 1640 medium supplemented with 10% fetal calf serum (FCS) containing < 0.1 ng/ml LPS. The membranes are resuspended in 20 mM HEPES (pH 7.4), 1 mM dithiothreitol, 1 mM EDTA and 10 µg leupeptin/ml. Aliquots are stored at -70°C until assayed.

[3] = tested on: GTPase activity in membranes isolated from a macrophage (RAW 264.7) cell line; assay: GTPase assay: basal or agonist-stimulated GTPase activity in macrophage membranes
From the text: as §1, with “preparations. In the preferred practice of the present invention, the ability of a candidate compound to inhibit LPS-induced GTPase is assessed by measuring the release of ^32Pi from γ-^32P-GTP.” for “preparations.”
(§5) We first determined the optimal LPS concentration for GTPase stimulation. In all experiments, the LPS dose response curve was quite steep, and with the highest activity occurring around 200-300 µg LPS/ml.
as §2, §3, §4
(§6) To assess whether the LPS/ATP-enhanced GTPase is a "low Km" form, which would be expected for a variety of large and small MW G-proteins, as well as for various GAP and ARF-like proteins, as opposed to a "high Km" form, such as a phosphatase, we assayed the GTPase activity using 0.2 and 50 µM GTP essentially as described previously. […] The LPS and ATP stimulated a low Km GTPase activity by ∼30% and 70%, respectively, when added individually. This stimulation of low Km activity was slightly greater than that estimated using the standard assay conditions. […] The LPS stimulation of GTPase activity is enhanced by adenine nucleotides.

[4] = tested on: GTPase activity in membranes isolated from a macrophage (RAW 264.7) cell line; assay: GTPase assay, basal activity and single agonists
From the text: as §1, with “preparations. In the preferred practice of the present invention, the ability of a candidate compound to inhibit LPS-induced GTPase is assessed by measuring the release of ^32Pi from γ-^32P-GTP.” for “preparations.”
as §5, §2
Because the above inhibitor studies indicated a maximum LPS-stimulated GTPase activity in the presence of ATP and ATP analogs, we investigated this interaction by measuring the ATP-dependence of the GTPase activity in macrophage membranes in the presence and absence of an optimal dose of LPS. […] This stimulation by ATP may be due to the action of purinergic receptors, i.e., the adenosine and ATP receptors which are well-characterized to be coupled to various G-proteins.
as §6

Nc1ncnc2c1ncn2[C@@H]1O[C@H](COP(=O)(O)OP(=O)(O)O)[C@@H](O)[C@H]1O [ADP]
stimulation (potentiation) of LPS-stimulated GTPase activity [1]: potentiated; also recorded: pronounced increase in LPS-stimulated GTPase activity
relative abilities of purines to stimulate LPS-enhanced GTPase [1]: ATP> ATPγS> ADP> AMPPNP>> β,γ methylene ATP> 2-MeSATP
LPS-stimulated GTPase activity when adenine nucleotide included in the incubation [2]: pronounced increase

Nc1ncnc2c1ncn2[C@@H]1O[C@H](COP(=O)(O)OP(=O)(O)NP(=O)(O)O)[C@@H](O)[C@H]1O [AMPPNP]
stimulation (potentiation) of LPS-stimulated GTPase activity [1]: pronounced increase in LPS-stimulated GTPase activity
relative abilities of purines to stimulate LPS-enhanced GTPase [1]: ATP> ATPγS> ADP> AMPPNP>> β,γ methylene ATP> 2-MeSATP
LPS-stimulated GTPase activity when adenine nucleotide included in the incubation [2]: pronounced increase

Nc1ncnc2c1ncn2[C@@H]1O[C@H](COP(=O)(O)O)[C@@H](O)[C@H]1O [AMP]
stimulation of LPS-enhanced GTPase activity ([1]; at 100 µM): ineffective; also recorded: did not synergistically increase

Nc1ncnc2c1ncn2[C@@H]1O[C@H](COP(=O)(O)OP(=O)(O)OP(=O)(O)O)[C@@H](O)[C@H]1O [ATP]
stimulation (potentiation) of LPS-stimulated GTPase activity [1]: potentiated; also recorded: pronounced increase in LPS-stimulated GTPase activity
ATP concentration of striking synergistic stimulation of GTPase activity ([1]; ATP and LPS added together, biphasic): 1 to 10 µM
increase in activity of the GTPase ([1]; ATP in the presence of LPS): three-fold
stimulation of LPS-enhanced GTPase activity ([1]; at 1 µM): active
relative abilities of purines to stimulate LPS-enhanced GTPase [1]: ATP> ATPγS> ADP> AMPPNP>> β,γ methylene ATP> 2-MeSATP
ATP concentration of maximum stimulation of GTPase activity ([3]; ATP alone, no LPS, biphasic stimulation): 1 to 10 µM
combined effects of LPS and ATP: stimulation calculated for the low Km activity ([3]; LPS plus ATP): 228 % of basal activity
combined effects of LPS and ATP: stimulation measured using standard assay conditions ([3]; LPS plus ATP, 2 µM GTP, 0.1 mM ATP, 0.2 mM AMPPNP): 208 % of basal activity
stimulation of low Km GTPase activity ([3]; added individually, ATP 10 µM): 70%
LPS-stimulated GTPase activity when adenine nucleotide included in the incubation [2]: pronounced increase

Nc1ncnc2c1ncn2[C@@H]1O[C@H](COP(=O)(O)OP(=O)(O)OP(O)(O)=S)[C@@H](O)[C@H]1O [ATPγS]
relative abilities of purines to stimulate LPS-enhanced GTPase [1]: ATP> ATPγS> ADP> AMPPNP>> β,γ methylene ATP> 2-MeSATP

CC(C)Cn1c(=O)n(C)c(=O)c2[nH]cnc21 [IBMX]
inhibition of LPS-stimulated GTPase activity [1]: did not alter the LPS activation of the GTPase
stimulation of LPS-enhanced GTPase activity ([1]; at 100 µM): did not synergistically increase
effect on the LPS activation of the GTPase ([2]; P1 purinoreceptor antagonist): did not alter

CCN1C(=O)C=CC1=O [N-ethyl-maleimide]
inhibition of LPS-stimulated GTPase activity [1]: not antagonized
inhibition of LPS-stimulated GTPase activity ([1]; in the presence of ADP): did not block

NC(=O)c1ccc[n+]([C@@H]2O[C@H](COP(=O)([O-])OP(=O)(O)OC[C@H]3O[C@@H](n4cnc5c(N)ncnc54)[C@H](O)[C@@H]3O)[C@@H](O)[C@H]2O)c1 [NAD]
stimulation of LPS-enhanced GTPase activity ([1]; at 100 µM): did not synergistically increase

O=c1ccn([C@@H]2O[C@H](COP(=O)(O)OP(=O)(O)OP(=O)(O)O)[C@@H](O)[C@H]2O)c(=O)[nH]1 [UTP]
stimulation of LPS-enhanced GTPase activity ([1]; at 100 µM): did not synergistically increase

Nc1ncnc2c1ncn2[C@@H]1O[C@H](CO)[C@@H](O)[C@H]1O [adenosine]
stimulation of LPS-enhanced GTPase activity ([1]; at 100 µM): ineffective; also recorded: did not synergistically increase

CO/C1=C\C(C)=C\[C@@H](C)[C@@H](O)[C@@H](C)C/C(C)=C/C=C/[C@H](OC)[C@@H]([C@@H](C)[C@@H](O)[C@H](C)[C@@]2(O)C[C@@H](O)[C@H](C)[C@@H](C(C)C)O2)OC1=O [bafilomycin]
inhibition of LPS-stimulated GTPase activity [1]: not antagonized
inhibition of LPS-stimulated GTPase activity ([1]; in the presence of ADP): did not block

C[C@@H]1O[C@@H](O[C@H]2C[C@@H](O)[C@]3(CO)[C@H]4[C@H](O)C[C@]5(C)[C@@H](C6=CC(=O)OC6)CC[C@]5(O)[C@@H]4CC[C@]3(O)C2)[C@H](O)[C@H](O)[C@H]1O [ouabain]
inhibition of LPS-stimulated GTPase activity [1]: not antagonized
sensitivity of LPS-stimulated GTPase activity to inhibitor [1]: insensitivity
inhibition of LPS-stimulated GTPase activity ([1]; in the presence of ADP): did not block

O=[N+]([O-])c1ccc(OP(=O)(O)O)cc1 [p-nitrophenyl-phosphate]
inhibition of LPS-stimulated GTPase activity [1]: not antagonized
sensitivity of LPS-stimulated GTPase activity to inhibitor [1]: insensitivity

[Na+].[Na+].[Na+].[O]=[V]([O-])([O-])[O-] [sodium orthovanadate]
inhibition of LPS-stimulated GTPase activity [1]: did block LPS activation

Cn1c(=O)c2[nH]cnc2n(C)c1=O [theophylline]
stimulation of LPS-enhanced GTPase activity ([1]; at 100 µM): did not synergistically increase

Nc1ncnc2c1ncn2[C@@H]1O[C@H](COP(=O)(O)OP(=O)(O)CP(=O)(O)O)[C@@H](O)[C@H]1O [β,γ methylene ATP]
relative abilities of purines to stimulate LPS-enhanced GTPase [1]: ATP> ATPγS> ADP> AMPPNP>> β,γ methylene ATP> 2-MeSATP

Triton X-100
inhibition of LPS-stimulated GTPase activity [1]: did not substantially interfere
effect on basal GTPase activity ([3]; no LPS): did reduce basal GTPase activity

phosphatidic acid [listing 1 of 2 here]
inhibition of LPS-stimulated GTPase activity [1]: nor inhibit LPS-stimulated GTPase activity
effect on basal GTPase activity ([3]; no LPS): did not stimulate basal GTPase activity

phosphatidic acid [listing 2 of 2 here]
effect on basal GTPase activity [4]: did not stimulate

phosphatidylcholine [listing 1 of 2 here]
inhibition of LPS-stimulated GTPase activity [1]: nor inhibit LPS-stimulated GTPase activity
effect on basal GTPase activity ([3]; no LPS): did not stimulate basal GTPase activity

phosphatidylcholine [listing 2 of 2 here]
effect on basal GTPase activity [4]: did not stimulate

phosphatidylserine [listing 1 of 2 here]
inhibition of LPS-stimulated GTPase activity [1]: nor inhibit LPS-stimulated GTPase activity
effect on basal GTPase activity ([3]; no LPS): did not stimulate basal GTPase activity

phosphatidylserine [listing 2 of 2 here]
effect on basal GTPase activity [4]: did not stimulate
